Assay results reported in patent publication US20050014268A1, “Genetic transformation using a PARP inhibitor” (Bayer BioScience NV, priority 1995, published 2005).
Marks after values point to notes of the source that are not given here.

Assays:
[1] = tested on: Hypocotyl explants of Brassica napus; test: Agrobacterium-mediated transformation of oilseed rape hypocotyl explants with pTHW142 using niacinamide before, during or after infection; type: cell-based
Description: Hypocotyl explants of Brassica napus were obtained as described in Example 3. Four groups of 200 hypocotyl explants each, were either not treated with niacinamide (indicated in table 4 as NONE), treated with 250 mg/l niacinamide for 1 day prior to infection with Agrobacterium (BEFORE), treated for 2 days during the infection with 250 mg/l niacinamide (DURING), or treated for 1 day after the Agrobacterium infection with 250 mg/l niacinamide (AFTER).
All hypocotyl explants were infected with Agrobacterium tumefaciens strain C58C1Rif carrying T-DNA vector pTHW142 and a helper Ti-plasmid pMP90 (Koncz and Shell, 1986 supra)(or a derivative thereof). Plasmid pTHW142 is a vector carrying a T-DNA comprising the following chimeric genes: • PSSU-bar-3′g7 • p35S-uidA-3′35S • In which uidA is a DNA encoding b-glucuronidase (Jefferson et al., 1986, Proc. Natl. Acad. Sci. USA 83, 8447-8451) and 3′ 35S is the 3′ untranslated end of the cauliflower mosaic virus 35S transcript. The complete sequence of the T-DNA of pTHW142 is presented in SEQ ID No 5.
After the Agrobacterium infection, hypocotyl explants were transferred to selection medium A5, and if appropriate to A5 medium containing 250 mg/ll niacinamide. The hypocotyl explants that were placed on medium containing niacinamide were transferred after 1 day to niacinamide-free selection medium A5. After 5 weeks on selective medium the number of transformed calli was scored. b-glucuronidase expression was verified in the obtained calli using established protocols (Jefferson et al., 1986).

[2] = tested on: wheat embryogenic callus (variety Pavon); test: Transformation of wheat calli with barnase/bar plasmids by particle bombardment, with niacinamide treatment of the calli; type: cell-based
Description: The Wheat Spring variety Pavon is grown in a greenhouse or conditioned room at 23-24° C. during daytime and 18-20° C. at night, with a photoperiod of 16 hours light and 8 hours dark. Developing seeds (white-greenish with white semi-liquid endosperm) were harvested, sterilized by incubation for 1 minute in 70% ethanol followed by 15 minute incubation in 1.3% NaOCl+0.1% Tween 20, and washed with sterile water. The sterilized seeds were either used directly or were stored for one day at 4-7° C.
Immature embryos of about 1 mm in size were isolated and were placed, with the scutellum upwards, on callus inducing medium W1 (MS medium supplemented with 3% sucrose, 40 mg/l adenine.SO4, 0.5 mg/l thiamine.HCl, 0.5 g/l 2-[N-Morpholino] ethane sulfonic acid (Mes) pH 5.8, 0.5% agarose, 0.5 to 2.5 mg/l CuSO4.5H2O, 25 mg/l acetylsalicylic acid and 2 mg/l 2,4-dichlorophenoxyacetic acid (2,4-D)) and were incubated for 3 weeks at 27° C. in the dark.
Embryogenic sections of the developing callus were isolated, placed on callus maintenance medium W2 (W1 medium but without acetylsalicylic acid and with only 0.5 mg/l CuSO4.5H2O and 1 mg 2,4-D), and incubated for 3 weeks at 24-25° C. in the light (approx. 20 mEinsteins/s/m^2 (with a photoperiod of 16 hours light and 8 hours dark).
About 2 weeks prior to bombardment the calli were cleaned up by removal of non-morphogenic (i.e. the nonembryogenic and nonmeristematic) parts and were subcultured on W2 medium.
For bombardment the calli were divided into small pieces with an average maximum diameter of about 2-3 mm. These pieces were placed at the center of a 9 cm Petridish containing W2 medium in a circle with a diameter of approx. 0.5 cm. […]
Bombardment was carried out using the Biolistic PDS-1000/He apparatus (Bio-Rad). Preparation of the microcarriers ([…]) and the coating of the microcarriers with DNA was essentially carried out according to the manufacturer's instructions. The Petridishes containing the calli were placed at level 2 of the apparatus and the bombardment was done at 1550 psi.
For the transformation experiments the following plasmid DNA was used. • plasmid pVE136, the sequence of which is given in SEQ ID No 4. This plasmid contains the following chimeric genes: • P35S-bar-3′nos • PCA55-barnase-3′nos • in which P35S is the 35S promoter of the Cauliflower, Mosaic virus, bar is a DNA encoding phosphinothricin acetyltransferase (EP 242236), 3′nos is the 3′ untranslated end of the Agrobacterium T-DNA nopaline synthase gene, PCA55 is a stamen-specific promoter from corn gene CA55 (WO 9213957), and barnase is a DNA encoding barnase (Hartley, 1988, J.Mol.Biol.202:913-915) • plasmid pTS172 the sequence of which is given in SEQ ID No 2. This plasmid contains the following chimeric genes: • P35S-bar-3′g7 • PE1-barnase-3′nos • in which in which P35S is the 35S promoter of the Cauliflower Mosaic virus, bar is a DNA encoding phosphinothricin acetyltransferase (EP 242236), 3′g7 is the 3′ untranslated end of the Aqrobacterium T-DNA gene 7, PE1 is a stamen-specific promoter from rice gene E1 (WO 9213956), barnase is a DNA encoding barnase (Hartley, 1988, J.Mol.Biol.202:913-915), and 3′ nos is the 3′ untranslated end of the Agrobacterium T-DNA nopaline synthase gene, • plasmid pTS772 which is identical to pTS172 except that the region between nucleotides 2625-4313 of pTS172, containing PE1, is replaced by the sequence of SEQ ID No 3 containing the PT72 promoter. Thus, plasmid pTS772 contains the following chimeric genes: • P35S-bar-3′g7 • PT72-barnase-3′nos • in which PT72 is a stamen-specific promoter from rice gene T72 (WO 9213956)
The bombarded calli were transferred to selective medium W2 containing 2.5 mg/l phosphinothricin (PPT) and, if neccesary, 100 mg/l niacinamide. The calli that were placed on medium containing niacinamide were transferred after 4 days to niacinamide-free W2 medium containing 2.5 mg/l PPT. The cells were cultured at 24-25° C. […]

[3] = Plasmid pTS172, Before 250, 125 bombarded calli
[4] = Plasmid pTS772, Before 250, 210 bombarded calli
[5] = Plasmid pTS772, Before/After, 210 bombarded calli

SMILES: NC(=O)c1cccnc1 [niacinamide]
- Transformation frequency (transformed calli, PPT-resistant and GUS-positive, per 100 hypocotyl explants) ([1]; AFTER: 250 mg/l niacinamide for 1 day after the infection, scored after 5 weeks): 29%
- Transformation frequency (transformed calli, PPT-resistant and GUS-positive, per 100 hypocotyl explants) ([1]; BEFORE: 250 mg/l niacinamide for 1 day prior to infection, scored after 5 weeks on selective medium): 32%
- Remarks (callus size and appearance) ([1]; BEFORE, large: callus diameter of approximately 5 mm): large, green calli
- Transformation frequency (transformed calli, PPT-resistant and GUS-positive, per 100 hypocotyl explants) ([1]; DURING: 250 mg/l niacinamide for 2 days during the infection, scored after 5 weeks): 16%
- Remarks (callus size and appearance) ([1]; DURING, very small: callus diameter of approximately 1-2 mm): very small, light green calli
- transformation efficiency ([1]; niacinamide treatment either before or after the Agrobacterium infection): significantly increase
- Nr of PPT-resistant calli recovered ([2]; Plasmid pTS172, Before 250 (250 mg/l niacinamide for four days prior to bombardment), 125 bombarded calli): 30
- Nr of MS plants recovered [2, 3]: 3^b)
- Nr of PPT resistant plants recovered [2, 3]: 3
- appearance of the obtained plants ([2]; Plasmid pTS172, Before 250, MS plants): ^b)The obtained plants looked healthy and tillered vigorously
- Nr of PPT resistant plants recovered [2, 4]: 7
- Nr of PPT-resistant calli recovered [2, 4]: 75
- Nr of MS plants recovered ([2]; Plasmid pTS772, Before 250, 210 bombarded calli, only six plants could be analyzed for MS phenotype): 3^a)b)
- appearance of the obtained plants ([2]; Plasmid pTS772, Before 250 and Before/After, MS plants): ^a)The obtained plants looked healthy and tillered vigorously
- Nr of PPT-resistant calli recovered ([2]; Plasmid pTS772, Before/After (250 mg/l four days prior plus 100 mg/l four days after bombardment), 210 bombarded calli): 45
- Nr of MS plants recovered [2, 5]: 3^a
- Nr of PPT resistant plants recovered [2, 5]: 6
- Nr of PPT resistant plants recovered ([2]; Plasmid pVE136, Before 100 (100 mg/l niacinamide for four days prior to bombardment), 800 bombarded calli): 8^a)
- Nr of MS plants recovered ([2]; Plasmid pVE136, Before 100, 800 bombarded calli): 8
- appearance of the obtained plants ([2]; Plasmid pVE136, Before 100, PPT resistant plants): ^a)The obtained plants looked healthy and tillered vigorously
- recovery of plants from bombarded calli ([2]; Tables 1, 2 and 3, treated versus untreated calli): obtained only from bombarded calli that were treated with niacinamide
